Consider seven compounds from ChEMBL document CHEMBL1201862, “PubChem BioAssay data set” (2004).

The target in one assay is Bcl-2-like protein 1 (Homo sapiens, UniProt Q07817). The assay can be described thus: BCL-XL inhibitors, dose response, selectivity assay for MCL1 inhibitor project, biochemical, fluorescence polarization, 1536-well (AID 2218).
The target in assay [1] is Induced myeloid leukemia cell differentiation protein Mcl-1 (Homo sapiens, UniProt Q07820). Description: MCL1-BIM BH3 interaction inhibitors, dose response, biochemical, fluorescence polarization, BIM-BH3 peptide, 1536-well (AID 2217). For orientation: In fluorescence polarisation assays a small probe gives low polarisation when free and higher when bound to something large.

Assay [2] concerns the target T1, Probable nicotinate-nucleotide adenylyltransferase (Staphylococcus aureus (strain N315), UniProt P65502). The assay is classed as functional, Staphylococcus aureus subsp. aureus N315. The note with it: read-out: IC50_Mean.
Assay [3] addresses T1, Probable nicotinate-nucleotide adenylyltransferase. The assay is classed as functional, Staphylococcus aureus subsp. aureus N315.
A further assay addresses Aspartyl aminopeptidase (Plasmodium falciparum 3D7, UniProt Q8I2J3). The assay can be described thus: Counterscreen for inhibitors of M1 and M17 aminopeptidases: QFRET-based biochemical high throughput dose response assay for inhibitors of the Plasmodium falciparum M18 Aspartyl Aminopeptidase (PFM18AAP). [Related PubChem assays: 1619 (Screening assay (M17LAP inhibitors).), 1445 (Screening assay (M1AAP inhibitors).)].

The target of the next assay is Procathepsin L (Homo sapiens, UniProt P07711). Description: cathepsin L inhibitors, dose response, counter-screen for M1/M17 aminopeptidase inhibitor project, biochemical, QFRET, 1536-well (AID 2214).
For a further assay, the target named is T2, Leucine aminopeptidase (Plasmodium falciparum 3D7, UniProt Q8IL11).
T2 sequence (Q8IL11 whole entry): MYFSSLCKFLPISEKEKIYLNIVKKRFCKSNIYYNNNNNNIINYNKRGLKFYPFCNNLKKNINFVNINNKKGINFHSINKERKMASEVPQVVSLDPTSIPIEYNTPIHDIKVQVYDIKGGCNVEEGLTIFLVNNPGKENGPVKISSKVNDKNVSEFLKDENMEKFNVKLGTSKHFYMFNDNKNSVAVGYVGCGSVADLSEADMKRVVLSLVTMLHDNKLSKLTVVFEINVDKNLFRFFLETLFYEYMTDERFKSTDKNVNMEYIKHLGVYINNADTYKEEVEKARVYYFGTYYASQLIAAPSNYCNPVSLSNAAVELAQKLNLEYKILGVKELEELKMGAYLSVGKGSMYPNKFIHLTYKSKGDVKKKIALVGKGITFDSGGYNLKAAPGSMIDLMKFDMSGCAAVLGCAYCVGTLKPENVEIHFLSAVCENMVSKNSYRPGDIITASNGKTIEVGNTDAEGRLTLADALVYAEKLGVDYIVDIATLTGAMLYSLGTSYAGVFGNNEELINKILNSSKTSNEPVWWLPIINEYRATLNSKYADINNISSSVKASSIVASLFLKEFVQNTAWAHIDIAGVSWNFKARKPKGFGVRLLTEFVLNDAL
Description: P. falciparum M17LAP inhibitors, primary screen, biochemical, fluorogenic H-Leu-NHMec substrate, 1536-well (AID 1619). The assay is classed as functional.

Assay [4] concerns the target T3, E3 ubiquitin-protein ligase XIAP (Homo sapiens, UniProt P98170). The assay can be described thus: XIAP antagonists, biochemical, IAP family, fluorescence polarization (AID 1018). The assay is classed as functional.
Assay [5] concerns the target T3, E3 ubiquitin-protein ligase XIAP. The assay can be described thus: Counter Screen using XIAP-Bir3 for Chemical Antagonists of Bir1/2 domains of IAP-family anti-apoptotic proteins. [Related pubchem assays (depositor defined):AID1018, AID1449, AID1514, AID1638, AID1749, AID1750, AID488957, AID488963]. On the technique in general: Counterscreens check selectivity or assay interference.

Another assay deals with T4, Estrogen receptor (Homo sapiens, UniProt P03372).
T4 sequence (P03372 whole entry): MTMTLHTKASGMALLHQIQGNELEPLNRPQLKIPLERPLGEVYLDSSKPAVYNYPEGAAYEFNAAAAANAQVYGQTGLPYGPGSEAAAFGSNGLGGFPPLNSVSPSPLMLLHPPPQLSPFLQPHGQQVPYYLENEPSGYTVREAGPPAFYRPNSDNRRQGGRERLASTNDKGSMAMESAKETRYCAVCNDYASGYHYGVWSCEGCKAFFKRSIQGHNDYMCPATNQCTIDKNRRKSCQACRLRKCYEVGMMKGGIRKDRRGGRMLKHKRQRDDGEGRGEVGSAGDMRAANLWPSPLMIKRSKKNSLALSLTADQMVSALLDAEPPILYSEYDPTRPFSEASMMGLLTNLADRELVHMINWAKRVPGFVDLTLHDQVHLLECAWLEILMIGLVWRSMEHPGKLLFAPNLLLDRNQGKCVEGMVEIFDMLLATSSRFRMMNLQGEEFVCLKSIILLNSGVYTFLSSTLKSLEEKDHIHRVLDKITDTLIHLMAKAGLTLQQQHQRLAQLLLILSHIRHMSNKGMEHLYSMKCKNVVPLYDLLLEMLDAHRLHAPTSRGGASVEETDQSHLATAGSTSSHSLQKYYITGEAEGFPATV
The assay can be described thus: potentiators of ERα–SRC-1 coactivator binding, dose response, biochemical, TR-FRET, ERα LBD (AID 737). Background: In TR-FRET formats the signal depends on donor and acceptor labels being close together.

For assay [6], the target named is ADP-ribosylation factor GTPase-activating protein 1 (Rattus norvegicus, UniProt Q62848). The assay can be described thus: Fluorescence polarization-based biochemical high throughput dose response screening assay to identify inhibitors of ADP-ribosylation factor GTPase activating protein 1 (ARFGAP1). The assay is classed as functional.
The nature of assay [7]: M. tuberculosis H37Rv growth inhibitors, H37Rv strain (AID 1626). The assay is classed as functional.
Assay [8] deals with Sphingosine 1-phosphate receptor 2 (Homo sapiens, UniProt O95136). The assay can be described thus: Dose Response Cell Based Assay for Agonists of the S1P2 Receptor of Purchased Analogues. [Related pubchem assays: 729, 843, 854, 736 ]. The assay is classed as functional.
A further assay has as its target T5, Protein RecA (Mycobacterium tuberculosis, UniProt P9WHJ3).
T5 sequence (P9WHJ3 whole entry): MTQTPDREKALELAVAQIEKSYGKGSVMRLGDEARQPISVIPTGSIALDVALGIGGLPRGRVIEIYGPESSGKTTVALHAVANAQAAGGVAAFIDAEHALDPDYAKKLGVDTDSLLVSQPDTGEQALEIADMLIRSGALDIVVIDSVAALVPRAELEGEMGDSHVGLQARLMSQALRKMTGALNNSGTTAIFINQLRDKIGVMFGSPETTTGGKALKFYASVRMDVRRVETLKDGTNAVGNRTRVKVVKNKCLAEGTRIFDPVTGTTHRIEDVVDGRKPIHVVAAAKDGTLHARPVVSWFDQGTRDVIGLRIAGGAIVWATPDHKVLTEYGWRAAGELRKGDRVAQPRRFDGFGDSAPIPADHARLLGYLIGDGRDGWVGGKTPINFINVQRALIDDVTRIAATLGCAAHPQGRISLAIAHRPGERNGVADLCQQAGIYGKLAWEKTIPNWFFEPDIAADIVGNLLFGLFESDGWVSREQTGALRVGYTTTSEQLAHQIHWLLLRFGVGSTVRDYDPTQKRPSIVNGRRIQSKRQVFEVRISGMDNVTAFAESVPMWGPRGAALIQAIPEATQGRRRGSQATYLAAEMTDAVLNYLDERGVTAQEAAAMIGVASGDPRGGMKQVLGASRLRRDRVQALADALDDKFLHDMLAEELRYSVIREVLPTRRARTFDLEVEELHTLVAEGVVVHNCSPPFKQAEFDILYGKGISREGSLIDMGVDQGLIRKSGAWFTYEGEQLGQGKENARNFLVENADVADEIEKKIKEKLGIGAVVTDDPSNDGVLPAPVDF
Description: Fluorescence Cell-Free Homogeneous Dose Retest to Identify Inhibitors of RecA-Intein Splicing Activity. [Related pubchem assays (depositor defined):AID2097, AID2223, AID489010, AID492950]. The format is functional.

The nature of assay [9]: Shn3 3'UTR reporter inhibitors, dose response, cell-based, Clone20 osteoblasts, firefly luciferase, cherry-picked (AID 624132).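 Also: firefly luciferase luminescence from reporter carrying the Shn3 3'UTR in osteoblasts.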 The assay is classed as functional.
The nature of assay [10]: control 3'UTR Renilla luciferase suppression, dose response, counter-screen for Shn3 inhibitor project, cell-based, Clone20-Shn3RL, cherry-picked (AID 624133). The format is functional.
Assay [11] addresses T6, Replicative DNA helicase DnaB (Mycobacterium tuberculosis, UniProt P9WMR3).
T6 sequence (P9WMR3 whole entry): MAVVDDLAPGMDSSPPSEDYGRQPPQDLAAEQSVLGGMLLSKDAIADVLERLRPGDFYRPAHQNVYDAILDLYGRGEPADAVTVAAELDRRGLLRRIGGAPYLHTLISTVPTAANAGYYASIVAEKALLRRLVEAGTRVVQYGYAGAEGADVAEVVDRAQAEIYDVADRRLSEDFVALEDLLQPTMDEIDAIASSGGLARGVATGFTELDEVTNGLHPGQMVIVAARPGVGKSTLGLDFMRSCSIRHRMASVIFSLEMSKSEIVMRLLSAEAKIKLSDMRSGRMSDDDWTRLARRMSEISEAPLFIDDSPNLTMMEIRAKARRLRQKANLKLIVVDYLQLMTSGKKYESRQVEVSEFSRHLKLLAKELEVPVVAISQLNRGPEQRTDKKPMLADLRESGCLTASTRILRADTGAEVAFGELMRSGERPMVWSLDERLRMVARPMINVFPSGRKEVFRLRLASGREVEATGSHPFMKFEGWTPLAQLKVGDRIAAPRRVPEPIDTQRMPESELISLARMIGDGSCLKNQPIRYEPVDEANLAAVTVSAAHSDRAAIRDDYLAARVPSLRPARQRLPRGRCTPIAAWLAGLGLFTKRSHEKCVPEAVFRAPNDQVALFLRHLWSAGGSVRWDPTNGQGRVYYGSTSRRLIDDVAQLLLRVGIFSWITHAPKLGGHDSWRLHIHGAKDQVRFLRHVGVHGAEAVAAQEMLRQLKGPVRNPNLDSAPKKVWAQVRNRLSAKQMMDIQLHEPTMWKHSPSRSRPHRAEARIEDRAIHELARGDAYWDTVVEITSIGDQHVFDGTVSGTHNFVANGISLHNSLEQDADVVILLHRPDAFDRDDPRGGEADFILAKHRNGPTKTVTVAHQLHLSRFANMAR
Description: DnaB intein splicing inhibitors, dose response, biochemical, cell-free fluorescence (AID 449749). The format is functional.

For assay [12], the target named is Sphingosine 1-phosphate receptor 1 (Homo sapiens, UniProt P21453). The assay is classed as functional.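 Also: Tango beta-arrestin reporter U2OS cells stimulated with S1P near its EC80; inhibitor potency meaning antagonism of receptor activation by the natural agonist.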
Assay [13] addresses T7, Sphingosine 1-phosphate receptor 4 (Homo sapiens, UniProt O95977).
T7 sequence (O95977 whole entry): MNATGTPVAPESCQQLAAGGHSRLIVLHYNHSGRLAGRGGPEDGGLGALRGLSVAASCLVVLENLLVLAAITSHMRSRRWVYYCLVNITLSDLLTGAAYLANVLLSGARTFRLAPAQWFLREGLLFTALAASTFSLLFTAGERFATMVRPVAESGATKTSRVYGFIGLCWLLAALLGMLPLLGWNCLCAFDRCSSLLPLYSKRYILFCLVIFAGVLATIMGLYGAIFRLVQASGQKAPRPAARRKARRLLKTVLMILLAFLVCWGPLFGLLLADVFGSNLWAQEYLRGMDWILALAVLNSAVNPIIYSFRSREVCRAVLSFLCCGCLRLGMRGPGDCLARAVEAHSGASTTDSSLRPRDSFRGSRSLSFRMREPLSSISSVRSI
The assay can be described thus: Fluorescence dose response cell-based high throughput screening assay for antagonists of the Sphingosine 1-Phosphate Receptor 4 (S1P4). [Related pubchem assays: 1524 (Confirmation in triplicates.), 1510 (Primary screen.)]. The assay is classed as functional.

For assay [14], the target named is Beta-2 adrenergic receptor (Homo sapiens, UniProt P07550). The assay can be described thus: beta2AR agonists driving receptor internalization, dose response, cell-based, FAP fluorogen, flow cytometry, cherry pick 1 (AID 588763). The format is functional.

SMILES strings stand for the structures. Activity calls are given as the source filed them. Bounds are passed on as bounds.
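For IC50 Mean in this document: confirmatory dose-response retesting of NadD inhibitor hits first found in an ultra-high-throughput screen.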

T1 sequence (P65502 whole entry): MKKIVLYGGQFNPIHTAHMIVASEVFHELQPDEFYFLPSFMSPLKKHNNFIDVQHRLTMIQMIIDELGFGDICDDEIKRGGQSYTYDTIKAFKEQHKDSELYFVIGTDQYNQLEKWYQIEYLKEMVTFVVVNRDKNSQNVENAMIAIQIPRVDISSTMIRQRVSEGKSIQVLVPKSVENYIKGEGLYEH
T3 sequence (P98170 whole entry): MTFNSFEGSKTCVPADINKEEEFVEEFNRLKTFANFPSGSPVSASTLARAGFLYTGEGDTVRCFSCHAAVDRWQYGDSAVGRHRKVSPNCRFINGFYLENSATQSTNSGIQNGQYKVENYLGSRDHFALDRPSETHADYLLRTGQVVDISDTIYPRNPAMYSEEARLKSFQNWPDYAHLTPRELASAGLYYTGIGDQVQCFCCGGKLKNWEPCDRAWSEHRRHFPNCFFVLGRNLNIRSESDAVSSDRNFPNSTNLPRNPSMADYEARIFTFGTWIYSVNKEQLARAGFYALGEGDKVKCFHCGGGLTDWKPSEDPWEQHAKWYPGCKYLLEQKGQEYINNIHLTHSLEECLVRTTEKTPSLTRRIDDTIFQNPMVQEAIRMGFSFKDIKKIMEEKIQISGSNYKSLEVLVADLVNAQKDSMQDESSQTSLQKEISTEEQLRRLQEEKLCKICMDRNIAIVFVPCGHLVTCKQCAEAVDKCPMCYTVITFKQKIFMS
Chain of Beta-2 adrenergic receptor (P07550 whole entry): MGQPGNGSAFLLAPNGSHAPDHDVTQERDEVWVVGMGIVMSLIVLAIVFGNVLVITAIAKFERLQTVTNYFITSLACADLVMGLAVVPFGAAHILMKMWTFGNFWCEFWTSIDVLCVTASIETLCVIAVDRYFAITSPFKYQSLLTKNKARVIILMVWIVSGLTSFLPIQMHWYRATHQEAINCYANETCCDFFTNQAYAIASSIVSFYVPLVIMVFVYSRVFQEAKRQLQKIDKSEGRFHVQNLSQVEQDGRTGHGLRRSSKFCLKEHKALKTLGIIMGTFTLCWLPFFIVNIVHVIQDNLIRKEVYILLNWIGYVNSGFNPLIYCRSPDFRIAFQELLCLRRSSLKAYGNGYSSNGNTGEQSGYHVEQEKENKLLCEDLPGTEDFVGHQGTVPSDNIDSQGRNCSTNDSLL
Chain of Induced myeloid leukemia cell differentiation protein Mcl-1 (Q07820 whole entry): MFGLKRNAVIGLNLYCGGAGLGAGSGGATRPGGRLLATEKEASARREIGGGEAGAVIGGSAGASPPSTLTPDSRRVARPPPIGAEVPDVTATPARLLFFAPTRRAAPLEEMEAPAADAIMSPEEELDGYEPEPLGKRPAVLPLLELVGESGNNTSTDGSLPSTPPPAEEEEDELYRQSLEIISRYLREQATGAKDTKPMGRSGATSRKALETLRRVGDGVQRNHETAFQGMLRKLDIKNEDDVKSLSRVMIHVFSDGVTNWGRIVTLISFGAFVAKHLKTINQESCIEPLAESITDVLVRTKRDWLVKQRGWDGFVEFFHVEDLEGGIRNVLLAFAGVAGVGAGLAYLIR
Chain of Sphingosine 1-phosphate receptor 2 (O95136 whole entry): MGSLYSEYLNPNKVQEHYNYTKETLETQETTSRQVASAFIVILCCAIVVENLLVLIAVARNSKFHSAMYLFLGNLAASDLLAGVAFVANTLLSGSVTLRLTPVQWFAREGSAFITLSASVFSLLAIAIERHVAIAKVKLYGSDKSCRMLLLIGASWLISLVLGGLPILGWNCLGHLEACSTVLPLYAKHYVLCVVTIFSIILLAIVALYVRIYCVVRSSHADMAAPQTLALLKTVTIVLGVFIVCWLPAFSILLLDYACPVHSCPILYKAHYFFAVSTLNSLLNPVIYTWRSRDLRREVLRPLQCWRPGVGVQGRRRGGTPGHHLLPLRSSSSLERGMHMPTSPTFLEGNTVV
Chain of Bcl-2-like protein 1 (Q07817 whole entry): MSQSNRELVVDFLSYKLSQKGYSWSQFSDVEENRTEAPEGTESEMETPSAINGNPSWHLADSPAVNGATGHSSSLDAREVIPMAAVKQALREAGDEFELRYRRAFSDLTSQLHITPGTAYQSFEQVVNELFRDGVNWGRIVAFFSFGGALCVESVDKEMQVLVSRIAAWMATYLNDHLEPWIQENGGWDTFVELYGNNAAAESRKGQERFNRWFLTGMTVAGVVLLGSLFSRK
Chain of Aspartyl aminopeptidase (Q8I2J3 whole entry): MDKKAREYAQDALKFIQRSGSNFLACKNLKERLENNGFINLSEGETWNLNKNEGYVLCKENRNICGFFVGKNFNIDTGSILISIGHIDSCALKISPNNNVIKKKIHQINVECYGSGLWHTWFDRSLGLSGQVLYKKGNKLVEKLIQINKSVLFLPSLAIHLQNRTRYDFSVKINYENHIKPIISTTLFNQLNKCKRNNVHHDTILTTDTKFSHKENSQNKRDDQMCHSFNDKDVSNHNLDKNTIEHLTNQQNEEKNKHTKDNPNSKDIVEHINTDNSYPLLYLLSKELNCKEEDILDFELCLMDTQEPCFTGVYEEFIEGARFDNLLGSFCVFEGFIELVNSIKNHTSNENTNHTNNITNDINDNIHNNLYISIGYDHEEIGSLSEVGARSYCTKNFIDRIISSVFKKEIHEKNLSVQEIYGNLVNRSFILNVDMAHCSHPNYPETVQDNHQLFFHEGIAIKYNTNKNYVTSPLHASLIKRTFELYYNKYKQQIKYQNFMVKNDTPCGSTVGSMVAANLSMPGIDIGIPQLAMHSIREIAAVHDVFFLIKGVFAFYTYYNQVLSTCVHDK
Chain of Sphingosine 1-phosphate receptor 1 (P21453 whole entry): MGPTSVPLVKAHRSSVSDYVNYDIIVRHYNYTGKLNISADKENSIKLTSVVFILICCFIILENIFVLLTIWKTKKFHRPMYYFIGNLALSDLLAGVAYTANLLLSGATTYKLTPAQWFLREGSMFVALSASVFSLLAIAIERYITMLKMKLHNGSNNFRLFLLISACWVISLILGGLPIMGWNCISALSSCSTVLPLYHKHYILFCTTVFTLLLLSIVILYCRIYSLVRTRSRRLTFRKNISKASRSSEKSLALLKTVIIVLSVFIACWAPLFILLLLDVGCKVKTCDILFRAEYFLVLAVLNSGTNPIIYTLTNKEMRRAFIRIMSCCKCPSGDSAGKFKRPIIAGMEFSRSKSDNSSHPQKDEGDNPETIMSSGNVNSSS
Chain of Procathepsin L (P07711 whole entry): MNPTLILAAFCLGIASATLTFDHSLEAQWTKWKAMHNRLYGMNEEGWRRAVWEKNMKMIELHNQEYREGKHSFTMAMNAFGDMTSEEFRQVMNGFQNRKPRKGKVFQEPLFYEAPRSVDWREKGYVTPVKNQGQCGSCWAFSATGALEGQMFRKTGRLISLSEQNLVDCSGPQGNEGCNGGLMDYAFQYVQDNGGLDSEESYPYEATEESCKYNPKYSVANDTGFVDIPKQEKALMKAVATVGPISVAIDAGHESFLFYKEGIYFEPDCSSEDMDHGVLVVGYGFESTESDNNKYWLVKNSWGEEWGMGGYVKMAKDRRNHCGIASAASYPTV
Chain of ADP-ribosylation factor GTPase-activating protein 1 (Q62848 whole entry): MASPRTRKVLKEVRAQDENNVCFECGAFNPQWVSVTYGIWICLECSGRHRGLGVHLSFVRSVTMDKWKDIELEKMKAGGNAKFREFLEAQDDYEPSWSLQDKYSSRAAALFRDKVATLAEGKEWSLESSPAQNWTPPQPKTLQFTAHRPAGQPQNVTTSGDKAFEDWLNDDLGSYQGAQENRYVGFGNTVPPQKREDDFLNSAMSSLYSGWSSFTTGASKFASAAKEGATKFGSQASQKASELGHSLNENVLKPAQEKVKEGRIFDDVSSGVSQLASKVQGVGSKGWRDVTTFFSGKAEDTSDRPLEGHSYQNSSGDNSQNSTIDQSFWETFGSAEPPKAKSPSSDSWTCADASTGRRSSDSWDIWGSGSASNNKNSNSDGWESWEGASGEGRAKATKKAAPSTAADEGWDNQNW

Turning to `Clc1cccc(C2Nc3cccc4cccc(c34)N2)c1`, the IC50 is > 109 µM (not active) on Bcl-2-like protein 1 and 28.6 µM (not active) in [1].
For the compound `Cc1ccc(Nc2nnc(SC/C(O)=C(\C#N)c3nc4ccccc4[nH]3)s2)c(C)c1`, the IC50 in assay [2] was 21.4 µM (active); in assay [3] it was 7.79 µM (active); against Aspartyl aminopeptidase, > 73.5 µM (not active); against Procathepsin L, > 59.6 µM (not active); at Leucine aminopeptidase, 6.03 µM (active).
Regarding `CCCNC(=O)c1cc(SC)ccc1Cl`, the results for the IC50 in [4] and in [5] were > 100 µM (not active) and > 100 µM (inactive), respectively.
A word on the EC50: it is the concentration needed to bring the measured effect to its halfway point. `COc1ccc(CCn2c(SCC(=O)Nc3cc(C)on3)nc3ccsc3c2=O)cc1OC`: the EC50 at Estrogen receptor is 12.8 µM (active). Besides, the IC50 in [6] was 44 µM (inactive).
Turning to `CCOc1ccc(NC(=O)N(C2CCCCC2)C2CCN(C(C)=O)CC2)cc1`, the IC50 in [7] is > 100 µM (active).
Take `Cc1ccc(C(=O)OCC(=O)c2cc(C)n(Cc3ccccc3)c2C)o1`: the EC50 in [8] was > 30 µM (not active).
The term AC50 denotes the midpoint of the concentration-response curve, whichever way the signal moves. With `CC(C)c1nnc(NC(=O)CCS(=O)(=O)c2nc(-c3cccs3)cc(C(F)(F)F)n2)s1`, the results for the half-maximal effective concentration (EC50) (at Protein RecA; in assay [14]) were 30.4 µM (inconclusive) and 33.7 µM (inactive), respectively. Besides, the half-maximal activity concentration (AC50) was 3.02 µM (active) in assay [9], 6.01 µM (active) in assay [10] and > 120 µM (inactive) in assay [11]. Further, the IC50 in [12] was 13.5 µM (not active); in [13] it was 1.1 µM (active).
